“And” between values parts separate entries of the source, which are not always exact repeats. Identical values can stand only once.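 Step 1: Grow cells in 96-well plates. Step 2: Expose to compound for 48 hours at 5 concentrations. Step 3: Interpolate endpoints linearly; if unreached, use highest concentration. The concentration for 50% growth inhibition is given as GI50. TGI is the concentration that stops growth completely.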
Assays:
Assay in all cases: NCI-60 cell line screen, 48 h
[1] = system: SR leukemia
[2] = system: HOP-92 NSCLC
[3] = system: SF-539 CNS
[4] = system: SNB-75 CNS
[5] = system: SK-MEL-5 melanoma
[6] = system: K-562 leukemia
[7] = system: BT-549 breast
[8] = system: SK-OV-3 ovarian
[9] = system: MDA-MB-231 breast
[10] = system: U251 CNS

Compound	GI50 [1] [µM]	TGI [1] [µM]	GI50 [2] [µM]	TGI [2] [µM]	GI50 [3] [µM]	TGI [3] [µM]	GI50 [4]	TGI [4] [µM]	GI50 [5] [µM]	TGI [5]	GI50 [6] [µM]	TGI [6] [µM]	GI50 [7] [µM]	TGI [7] [µM]	GI50 [8] [µM]	TGI [8] [µM]	GI50 [9] [µM]	TGI [9] [µM]	GI50 [10] [µM]	TGI [10] [µM]
c1cnn2ncc(-c3ccnc(NCCCN4CCOCC4)n3)c2c1	5.21	> 21.3	5.08	17.4	6.18	18.7	5.52 µM	12.7	3.63	9.7 µM	> 22.4	> 25	7.5	> 25	8.34	> 25	8.04	> 25	7.18	> 25
NC(=O)c1csc(C2OC(CO)C(O)C2O)n1 (centres undefined)	103	> 6090		1300	47.9	3590	26.5 µM and 40.8 µM	7140	> 31.6	> 31.6 µM and 8280 µM	8.88	7060	> 60.7	> 10000	79.9	> 5120	> 73.8	> 6480	45.5	2540
O=S(=O)(c1ccc(Cl)cc1)C(Cl)(Cl)Cl	0.486	39.7	1.71	23.2	3.17	29	2.34 µM	20.3	3.02	12.1 µM	1.6	> 100	1.4	7.48	14	67	3.85	23	3.96	21.1
CN1CCN(C(=O)c2cc(-c3ccc4ncnc(N5CCc6cc(F)c(Cl)cc65)c4c3)cnc2N)CC1	0.137		0.154	1.08	0.264	1.44	0.0512 µM	0.704	0.209	0.476 µM	0.234	11.7	0.181	1.57	0.382	2.21	0.444	3.12	0.348	5.71
COc1ccc(-c2cc(-c3ccc(C)cc3)nc3nc(=S)[nH]c(N)c23)cc1	24.6	55.8	15.5	75.5	19.2	38.9	66.2 µM	> 100	14.1	29.6 µM	15.1	36.5	27.1	60.4	40.4	> 100	19.5	48.3	15.2	29.3
O=c1[nH]c(=O)n(C2CC(O)C(COP(=O)(OCc3ccc([N+](=O)[O-])o3)N(CCCCCl)CC(O)CO)O2)cc1F (centres undefined)	< 0.0269	> 100	0.156		< 0.0348		2.82 µM	> 100	0.386	4.49 µM	3.14	> 100	0.663	> 100	> 100	> 100	> 100	> 100		> 100
COc1ccc2c(c1)N(CCO)C1=C(C(=O)OC1)C2c1cccc(F)c1 (centres undefined)	0.195	> 50	0.525	> 23.3	0.332	3.19	0.186 µM	13.6	0.456	> 11.4 µM	0.199	> 50	0.761	> 14.4	1.26	> 50	1.1	> 19.3	0.65	> 50
NC(CSC1c2ccccc2-c2ccccc21)C(=O)O (centres undefined)		> 100		> 100		> 100		> 100		> 100 µM		> 100		> 100		> 100		> 100		> 100
OCC12C3C4C5C3C1C5C42 (centres undefined)		> 100		> 100		> 100		> 100		> 100 µM		> 100		> 100		> 100		> 100		> 100
N#Cc1c(N2CCOCC2)nc(=S)[nH]c1-c1ccco1	2.8	51.7	1.79	> 100	6.34	69.9	2.15 µM	55.6	5.06	> 100 µM	24.7	> 100	3.15	18.1	2.72	14.7	4.63	> 100	20.2	> 100
O=C(O)CN1CCN(CC(=O)O)CC(=O)[O][Hg][O]C(=O)C1	14.8	38.6	20.6	37.8	60.1	> 100	23.6 µM	66.5	20.5	> 57 µM	17.9	44.6	19.5	34.8	> 92.2	> 100	19.6	35.3	12.2	25.7
CCOC(=O)C1=C(C)N(c2ccc(Cl)cc2)[C@]2(C#N)C(O)=C(Cl)C(Cl)=C(O)[C@]12C#N	20.6	> 100	78.2	> 100	8.61	96.8	26.1 µM	83	> 100	> 100 µM	21.5	> 100	1.57	33.4	69.6	> 100	38.8	> 100	> 100	> 100
O=C1c2ccccc2-c2cc([N+](=O)[O-])c([N+](=O)[O-])cc21		0.459		3.2		1.03		3.39		3.94 µM		8.04		3.79		6.51		3.33		2.93
CC(C)C[C@H](NC(=O)CNC(=O)c1cc(Cl)ccc1Cl)B1OC(=O)CC(CC(=O)O)(C(=O)O)O1 (some centres undefined)	0.0384	> 100	0.0219	0.173	0.023	0.0528	0.182 µM	0.504	0.0177	0.0467 µM	0.074	> 100	0.0324	0.126	0.261	29.6	0.0532	0.485	0.0874	5.64
C/C(=C\c1ccc2ccccc2c1)[N+](=O)[O-]	0.409	2.56	1.96	5.06	1.64	3.07	1.84 µM	4.21	1.79	3.87 µM	2.23	7.99	2.24	4.57	14.8	28.7	2.02	3.92	1.77	3.6
COc1cc(N2C(=O)[C@H](O)C2c2ccc(SC)cc2)cc(OC)c1OC (some centres undefined)	< 0.01	> 100	71.4	> 100	< 0.01		< 0.01 µM	> 100	< 0.01	0.0304 µM	< 0.01	> 100	< 0.01	0.0835	0.0142	> 100	0.0235	> 100	< 0.01	> 100
CN1C(=O)N(C)C2C1NN=c1s/c(=C\c3ccc(C(F)(F)F)cc3)c(=O)n12 (centres undefined)	0.329	> 100	0.433	57.9	0.983	6.26	2.11 µM	18.1	0.594	13.9 µM	0.431	> 100	3.66	> 100	3.96	46.9	2.29	14	0.569	14.4
CN(C)CCCn1c(=O)c2ccccc2c2ccccc21	12.8	> 100	17.9	67.2	11.8	28.8	13.9 µM	28.6	12.3	24.9 µM	21.8	> 100	29.5	73.9	26.6	> 100	22.3	62.7	13.8	78.5
OCc1ccc(N2CCCC2c2ccccc2)cc1Cl (centres undefined)	3.13	17.2	2.06	9.28	8.77	21.8	3.28 µM	29	3.33	9.36 µM	2.33	10.6	7.12	18.7	2.89	13	5.58	24.9	2.35	13.3
O=C(/C=C/c1ccccc1)CCN1CCOCC1		53.3		38.1		25		51.6		33.5 µM		12.6		17.9		51.6		35.1		31.7
